Consider 12 compounds from patent US9447087B2, “Galactokinase inhibitors for the treatment and prevention of associated diseases and disorders” (UNIVERSITY OF UTAH RESEARCH FOUNDATION, priority 2011, dated 2016).

Data set [1] relates to HEK293 cells. Nature of the data set: cytotoxicity, Promega CellTiter Glo on HEK293 cells (PubChem ID 2547). It counts as cell-based. The conditions noted are these: analyzed after 48 hours. As for the experimental part:
(§1) The selectivity for these analogs against CDP-ME kinase, another member of the GHMP kinase family, was performed using a bioluminescent Kinase Glo™ assay that detects ATP depletion after kinase reaction (PubChem ID 2506). […] All analogs were also tested for cytotoxicity using Promega CellTiter Glo on HEK293 cells that were treated with compounds and analyzed after 48 hours.

In data set [2] the target is GALK (Homo sapiens (Human), UniProt P51570). Briefly: primary qHTS assay for inhibitors of GALK (KinaseGlo ATP depletion). The format is biochemical. The following applies: 5 nM GALK, 35 μM ATP, 1 hr incubation. As for the experimental part: Assay details and protocol: The primary assay monitored ATP depletion using Promega's KinaseGlo™ technology, where ATP levels are measured through luminescence generated from firefly luciferase, a bioluminescent ATP-dependent enzymes. […] This was used as the positive control for the assay. […]
Chain of GALK (P51570 whole entry): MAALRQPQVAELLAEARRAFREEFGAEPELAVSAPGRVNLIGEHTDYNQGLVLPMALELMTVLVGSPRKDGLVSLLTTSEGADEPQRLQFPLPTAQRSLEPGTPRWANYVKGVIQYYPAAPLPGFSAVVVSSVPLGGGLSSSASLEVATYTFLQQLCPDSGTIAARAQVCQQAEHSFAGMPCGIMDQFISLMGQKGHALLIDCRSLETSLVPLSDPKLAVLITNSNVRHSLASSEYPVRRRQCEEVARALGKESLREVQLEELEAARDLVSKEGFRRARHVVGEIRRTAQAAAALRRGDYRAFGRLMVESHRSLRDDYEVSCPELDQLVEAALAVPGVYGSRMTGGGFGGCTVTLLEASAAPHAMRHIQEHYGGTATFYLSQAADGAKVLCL
(qHTS replaces the single test concentration by a dilution series.)

Data set [3] in a line: Solubility in PBS. It counts as physicochemical. The conditions noted are these: aqueous buffer, pH 7.4, 23° C.
Data set [4] addresses CDP-ME kinase (Escherichia coli (strain K12), UniProt P62615). Nature of the data set: selectivity against CDP-ME kinase (bioluminescent Kinase Glo ATP depletion, PubChem ID 2506). The format is biochemical. The conditions noted are these: up to 57 μM. As for the experimental part:
as §1, with “hours. […] In addition, the ability of these compounds to undergo redox recycling, which may lead to false positive results, was also evaluated using an endpoint colorimetric assay; this assay detects the presence of H2O2 in the kinase reaction buffer (PubChem ID 2502).” for “hours.”
For orientation: In Kinase-Glo more light means more ATP remaining.

SMILES strings stand for the structures. ≈ marks a conversion by molar mass, not a printed value.

Chain of CDP-ME kinase (P62615 whole entry, looked up): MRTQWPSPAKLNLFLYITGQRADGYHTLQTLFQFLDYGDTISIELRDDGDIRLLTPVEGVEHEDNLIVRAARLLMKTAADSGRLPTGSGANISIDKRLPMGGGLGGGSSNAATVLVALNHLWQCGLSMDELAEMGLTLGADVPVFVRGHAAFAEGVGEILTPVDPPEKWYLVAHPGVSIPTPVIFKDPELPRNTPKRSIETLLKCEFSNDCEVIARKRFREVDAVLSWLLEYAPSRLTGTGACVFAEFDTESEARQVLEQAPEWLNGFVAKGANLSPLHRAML

For `O=C1CCCC2=C1C1(CCCC1)N=C(Nc1nc3cc(Br)ccc3o1)N2` [Compound 27], the “cytotoxic effect on HEK293 cells” value in data set [1] is listed as “no cytotoxic effect”. Further, the midpoint of inhibition in data set [2], the IC50, lay at 7.49 µM.
In the case of `O=C1CCCC2=C1C1(CCCC1)N=C(Nc1nc3ccccc3o1)N2` [NCGC00187642], the solubility (usually the concentration that dissolves in the medium under given conditions) in data set [3] came out at 2.3 µg/mL (≈ 6.84 µM). Further, the “activity against CDP-ME kinase” value in data set [4] is “no activity”.
With `O=C1CCCC2=C1C1(CCCC1)N=C(Nc1nc3cc4ccccc4cc3o1)N2` [Compound 33], the “cytotoxic effect on HEK293 cells” value in data set [1] was “no cytotoxic effect”. The IC50 (as a rule, the concentration at which inhibition is half-maximal) in data set [2] worked out at 37.5 µM.
Consider `Cc1ccc2oc(NC3=NC4(CCCC4)C4=C(CCCC4=O)N3)nc2c1` [Compound 26], for which the “cytotoxic effect on HEK293 cells” value in data set [1] is reported as “no cytotoxic effect”. The IC50 in data set [2] came out at 5.95 µM.
In the same order, the values of `O=C1CCCC2=C1C1(CCC1)N=C(Nc1nc3ccccc3o1)N2` [Compound 3] are “no cytotoxic effect” and 16.8 µM.
As for `O=C1CC(c2ccccc2)CC2=C1C1(CCCCC1)N=C(Nc1nc3ccccc3o1)N2` (centres unmarked) [Compound 6], the “cytotoxic effect on HEK293 cells” value in data set [1] is on record as “no cytotoxic effect”. Also, inhibition in data set [2] was half-maximal at 42.1 µM (IC50).
In the same order, the values of `O=C1CCCC2=C1C1(CCCC1)N=C(Nc1nc3cc(Cl)ccc3o1)N2` [Compound 20] are “no cytotoxic effect” and 6.68 µM.
In the same order, the values of `O=C1CCC2=C1C1(CCCC1)N=C(Nc1nc3ccccc3o1)N2` [Compound 10] are “no cytotoxic effect” and 13.3 µM.
On to `Cc1ccc2nc(NC3=NC4(CCCC4)C4=C(CCCC4=O)N3)oc2c1` [Compound 28], for which the “cytotoxic effect on HEK293 cells” value in data set [1] is “no cytotoxic effect”. The compound also came in with an IC50 in data set [2] of 21.1 µM.
For the compound `Cn1c(NC2=NC3(CCCC3)C3=C(CCCC3=O)N2)nc2ccccc21` [Compound 35], in data set [1], the “cytotoxic effect on HEK293 cells” value is “no cytotoxic effect”. The compound also returned an IC50 in data set [2] of 74.9 µM.
As for `O=C1CCCC2=C1C1(CCCC1)N=C(Nc1nc3ccccc3o1)N2` [Compound 4], the “cytotoxic effect on HEK293 cells” value in data set [1] is reported as “no cytotoxic effect”.
As to `CC1(C)CC(=O)C2=C(C1)NC(Nc1nc3ccccc3o1)=NC21CCCC1` [Compound 8], the “cytotoxic effect on HEK293 cells” value in data set [1] is reported as “no cytotoxic effect”. In addition, in data set [2], the IC50 turned out to be 6.68 µM.
